# Reference: US7846959B2, “Raf modulators and methods of use” (Exelixis, Inc., priority 2004, dated 2010)
# Key:
# [1] = molecular target: B-Raf (Homo sapiens, UniProt P15056); assay: Luciferase-coupled chemiluminescence kinase assay (ATP consumption), B-Raf; assay type: biochemical; details: read-out: bRaf IC50
# Method: (§1) Tyrosine kinase activity is determined by 1) measurement of kinase-dependent ATP consumption by in the presence of a generic substrate such as […], tyrosine (pEY), by luciferase/luciferin-mediated chemiluminescence or; 2) incorporation of radioactive phosphate derived from ^33P-ATP into a generic substrate which has been adsorbed onto the well surface of polystyrene microtiter plates. Phosphorylated substrate products are quantified by scintillation spectrometry.
# (§2) Luciferase-Coupled Chemiluminescence Assay Protocol
# (§3) Kinase activity is measured as the percent of ATP consumed following the kinase reaction using luciferase-luciferin-coupled chemiluminescence. Reactions were conducted in 384-well white, medium binding microtiter plates (Greiner). Kinase reactions were initiated by combining test compounds, ATP and kinase in a 20 uL volume. The reaction mixture was incubated at ambient temperature for 3 hrs. For c-Raf, B-Raf, and B-RafV599E, […] of the enzyme was pre-incubated with compound in 20 mM Tris pH 7.5, 10 mM MgCl2, 0.03% TX-100, and 1 mM DTT for 30 minutes at room temperature. Following the kinase reaction, a 20 μL aliquot of luciferase-luciferin mix was added and the chemiluminescence signal measured using a Victor^2 plate reader (Perkin Elmer). The luciferase-luciferin mix contained 50 mM HEPES, pH 7.8, 67 mM oxalic acid (pH 7.8), 5 (or 50) mM DTT, 0.4% Triton X-100, 0.25 mg/mL coenzyme A, 63 μM AMP, 28 μg/mL luciferin and 40,000 units/mL luciferase. Total ATP consumption was limited to 25-60% and the IC50 values correlate well with those determined by radiometric assays.
# [2] = molecular target: c-Raf (Homo sapiens, UniProt P04049); assay: Luciferase-coupled chemiluminescence kinase assay (ATP consumption), c-Raf; assay type: biochemical; details: read-out: cRaf-1 IC50
# c-Raf, sequence (P04049 whole entry): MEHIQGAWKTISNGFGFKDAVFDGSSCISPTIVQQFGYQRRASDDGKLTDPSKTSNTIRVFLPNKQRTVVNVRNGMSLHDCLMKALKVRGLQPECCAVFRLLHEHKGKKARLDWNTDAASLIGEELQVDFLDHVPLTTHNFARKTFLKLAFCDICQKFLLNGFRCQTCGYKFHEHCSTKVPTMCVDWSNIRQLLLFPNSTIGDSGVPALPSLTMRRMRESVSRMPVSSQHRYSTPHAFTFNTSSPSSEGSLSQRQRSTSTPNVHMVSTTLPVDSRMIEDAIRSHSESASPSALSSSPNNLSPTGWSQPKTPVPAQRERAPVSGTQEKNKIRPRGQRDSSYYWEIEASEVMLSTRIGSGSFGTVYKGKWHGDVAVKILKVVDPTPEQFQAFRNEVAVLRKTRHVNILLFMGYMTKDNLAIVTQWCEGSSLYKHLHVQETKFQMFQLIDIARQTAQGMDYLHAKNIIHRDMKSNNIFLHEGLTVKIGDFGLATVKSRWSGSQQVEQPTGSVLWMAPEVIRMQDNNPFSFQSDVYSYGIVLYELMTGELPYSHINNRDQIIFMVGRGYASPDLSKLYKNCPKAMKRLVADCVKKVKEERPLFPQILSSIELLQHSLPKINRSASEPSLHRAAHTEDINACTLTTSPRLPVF
# Method: as §1, §2, §3
# B-Raf, sequence (P15056 whole entry): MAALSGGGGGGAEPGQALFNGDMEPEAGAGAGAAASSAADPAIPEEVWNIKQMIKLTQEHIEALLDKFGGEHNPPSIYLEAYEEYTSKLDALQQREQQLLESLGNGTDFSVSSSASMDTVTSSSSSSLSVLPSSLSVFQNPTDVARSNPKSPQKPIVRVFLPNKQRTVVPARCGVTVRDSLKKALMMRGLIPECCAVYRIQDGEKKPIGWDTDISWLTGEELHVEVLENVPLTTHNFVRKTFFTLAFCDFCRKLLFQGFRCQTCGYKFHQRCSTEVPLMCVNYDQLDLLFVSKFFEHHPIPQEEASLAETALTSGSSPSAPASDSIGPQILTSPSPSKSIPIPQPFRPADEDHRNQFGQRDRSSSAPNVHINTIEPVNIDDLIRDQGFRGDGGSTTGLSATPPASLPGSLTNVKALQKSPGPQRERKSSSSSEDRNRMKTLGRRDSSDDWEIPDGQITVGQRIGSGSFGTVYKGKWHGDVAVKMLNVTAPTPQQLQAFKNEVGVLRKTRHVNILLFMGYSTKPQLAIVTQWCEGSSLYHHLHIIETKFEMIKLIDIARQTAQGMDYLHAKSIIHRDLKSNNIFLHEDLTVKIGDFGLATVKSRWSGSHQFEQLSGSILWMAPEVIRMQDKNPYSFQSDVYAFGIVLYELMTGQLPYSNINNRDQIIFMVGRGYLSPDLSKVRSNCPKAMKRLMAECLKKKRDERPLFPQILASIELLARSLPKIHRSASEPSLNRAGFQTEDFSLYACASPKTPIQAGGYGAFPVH
IC50 [1] [µM],IC50 [2] [µM],SMILES
≥ 10,≥ 10,"CS(=O)(=O)c1cccc(N2C(=O)c3ccccc3C2(O)c2ccc3c(c2)NC(=O)CO3)c1 (stereo not drawn) [Entry 69, 6-{1-hydroxy-2-[3-(methylsulfonyl)phenyl]-3-oxo-2,3-dihydro-1H-isoindol-1-yl}-2H-1,4-benzoxazin-3(4H)-one]"
1 to 10,1 to 10,"N#Cc1cccc(N2C(=O)c3ccccc3C2(O)c2ccc3c(c2)NC(=O)CO3)c1 (stereo not drawn) [Entry 71, 3-[1-hydroxy-3-oxo-1-(3-oxo-3,4-dihydro-2H-1,4-benzoxazin-6-yl)-1,3-dihydro-2H-isoindol-2-yl]benzonitrile]"
1 to 10,1 to 10,"O=C1COc2ccc(C3(O)c4ccccc4C(=O)N3c3ccccc3Cl)cc2N1 (stereo not drawn) [Entry 72, 6-[2-(2-chlorophenyl)-1-hydroxy-3-oxo-2,3-dihydro-1H-isoindol-1-yl]-2H-1,4-benzoxazin-3(4H)-one]"
0.1 to 1,0.1 to 1,"Cc1c(Cl)cccc1N1C(=O)c2ccccc2C1(O)c1ccc2c(c1)NC(=O)CO2 (stereo not drawn) [Entry 75, 6-[2-(3-chloro-2-methylphenyl)-1-hydroxy-3-oxo-2,3-dihydro-1H-isoindol-1-yl]-2H-1,4-benzoxazin-3(4H)-one]"
0.1 to 1,0.1 to 1,"CCc1cccc(N2C(=O)c3ccccc3C2(O)c2ccc3c(c2)NC(=O)CO3)c1 (stereo not drawn) [Entry 76, 6-[2-(3-ethylphenyl)-1-hydroxy-3-oxo-2,3-dihydro-1H-isoindol-1-yl]-2H-1,4-benzoxazin-3(4H)-one]"
1 to 10,0.1 to 1,"O=C1COc2ccc(C3(O)c4ccccc4C(=O)N3c3cccc(Oc4ccccc4)c3)cc2N1 (stereo not drawn) [Entry 79, 6-{1-hydroxy-3-oxo-2-[3-(phenyloxy)phenyl]-2,3-dihydro-1H-isoindol-1-yl}-2H-1,4-benzoxazin-3(4H)-one]"
1 to 10,1 to 10,"O=C1COc2ccc(C3(O)c4ccccc4C(=O)N3c3cccc(CO)c3)cc2N1 (stereo not drawn) [Entry 82, 6-{1-hydroxy-2-[3-(hydroxymethyl)phenyl]-3-oxo-2,3-dihydro-1H-isoindol-1-yl}-2H-1,4-benzoxazin-3(4H)-one]"
0.1 to 1,1 to 10,"O=C1COc2ccc(C3(O)c4ccccc4C(=O)N3c3ccccc3F)cc2N1 (stereo not drawn) [Entry 83, 6-[2-(2-fluorophenyl)-1-hydroxy-3-oxo-2,3-dihydro-1H-isoindol-1-yl]-2H-1,4-benzoxazin-3(4H)-one]"
≥ 10,≥ 10,"O=C1COc2ccc(C3(O)c4ccccc4C(=O)N3C3CCNCC3)cc2N1 (stereo not drawn) [Entry 88, 6-(1-hydroxy-3-oxo-2-piperidin-4-yl-2,3-dihydro-1H-isoindol-1-yl)-2H-1,4-benzoxazin-3(4H)-one]"
1 to 10,1 to 10,"Cc1ccccc1N1C(=O)c2ccccc2C1(O)c1ccc2c(c1)NC(=O)CO2 (stereo not drawn) [Entry 90, 6-[1-hydroxy-2-(2-methylphenyl)-3-oxo-2,3-dihydro-1H-isoindol-1-yl]-2H-1,4-benzoxazin-3(4H)-one]"
0.1 to 1,0.1 to 1,"CCOC1(c2ccc3[nH]c(NC(=O)OC)nc3c2)c2ccccc2C(=O)N1Cc1ccccc1 (stereo not drawn) [Entry 92, methyl {5-[1-(ethyloxy)-3-oxo-2-(phenylmethyl)-2,3-dihydro-1H-isoindol-1-yl]-1H-benzimidazol-2-yl}carbamate]"
0.1 to 1,0.1 to 1,"COC(=O)Nc1nc2cc(C(=O)c3ccccc3C(=O)OCc3ccccc3)ccc2[nH]1 [Entry 93, Phenylmethyl 2-[(2-{[(methyloxy)carbonyl]amino}-1H-benzimidazol-5-yl)carbonyl]benzoate]"
0.1 to 1,0.1 to 1,"O=C1c2ccccc2C(O)(c2ccc3[nH]ncc3c2)N1Cc1ccccc1 (stereo not drawn) [Entry 94, 3-hydroxy-3-(1H-indazol-5-yl)-2-(phenylmethyl)-2,3-dihydro-1H-isoindol-1-one]"
≥ 10,≥ 10,"CCOC(=O)Nc1nc2cc(C3(O)c4ccccc4C(=O)N3Cc3ccccc3)ccc2[nH]1 (stereo not drawn) [Entry 96, ethyl {5-[1-hydroxy-3-oxo-2-(phenylmethyl)-2,3-dihydro-1H-isoindol-1-yl]-1H-benzimidazol-2-yl}carbamate]"
0.1 to 1,0.1 to 1,"CC(C)COC(=O)Nc1nc2cc(C3(O)c4ccccc4C(=O)N3Cc3ccccc3)ccc2[nH]1 (stereo not drawn) [Entry 97, 2-methylpropyl {5-[1-hydroxy-3-oxo-2-(phenylmethyl)-2,3-dihydro-1H-isoindol-1-yl]-1H-benzimidazol-2-yl}carbamate]"

# Second part, the compound before the results:
SMILES,IC50 [1] [µM],IC50 [2] [µM]
"CCOC(=O)c1cccc(N2C(=O)c3ccccc3C2(O)c2ccc3c(c2)NC(=O)CO3)c1 (stereo not drawn) [Entry 70, ethyl 3-[1-hydroxy-3-oxo-1-(3-oxo-3,4-dihydro-2H-1,4-benzoxazin-6-yl)-1,3-dihydro-2H-isoindol-2-yl]benzoate]",≥ 10,≥ 10
"Nc1cc(Cl)cc(N2C(=O)c3ccccc3C2(O)c2ccc3c(c2)NC(=O)CO3)c1 (stereo not drawn) [Entry 73, 6-[2-(3-amino-5-chlorophenyl)-1-hydroxy-3-oxo-2,3-dihydro-1H-isoindol-1-yl]-2H-1,4-benzoxazin-3(4H)-one]",< 0.1,< 0.1
"Cc1ccc(Cl)cc1N1C(=O)c2ccccc2C1(O)c1ccc2c(c1)NC(=O)CO2 (stereo not drawn) [Entry 74, 6-[2-(5-chloro-2-methylphenyl)-1-hydroxy-3-oxo-2,3-dihydro-1H-isoindol-1-yl]-2H-1,4-benzoxazin-3(4H)-one]",< 0.1,< 0.1
"C#Cc1cccc(N2C(=O)c3ccccc3C2(O)c2ccc3c(c2)NC(=O)CO3)c1 (stereo not drawn) [Entry 77, 6-[2-(3-ethynylphenyl)-1-hydroxy-3-oxo-2,3-dihydro-1H-isoindol-1-yl]-2H-1,4-benzoxazin-3(4H)-one]",0.1 to 1,0.1 to 1
"O=C1COc2ccc(C3(O)c4ccccc4C(=O)N3c3cccc(O)c3)cc2N1 (stereo not drawn) [Entry 78, 6-[1-hydroxy-2-(3-hydroxyphenyl)-3-oxo-2,3-dihydro-1H-isoindol-1-yl]-2H-1,4-benzoxazin-3(4H)-one]",1 to 10,1 to 10
"O=C1COc2ccc(C3(O)c4ccccc4C(=O)N3c3cccc(OCc4ccccc4)c3)cc2N1 (stereo not drawn) [Entry 80, 6-(1-hydroxy-3-oxo-2-{3-[(phenylmethyl)oxy]phenyl}-2,3-dihydro-1H-isoindol-1-yl)-2H-1,4-benzoxazin-3(4H)-one]",≥ 10,≥ 10
"NC(=O)c1cccc(N2C(=O)c3ccccc3C2(O)c2ccc3c(c2)NC(=O)CO3)c1 (stereo not drawn) [Entry 81, 3-[1-hydroxy-3-oxo-1-(3-oxo-3,4-dihydro-2H-1,4-benzoxazin-6-yl)-1,3-dihydro-2H-isoindol-2-yl]benzamide]",1 to 10,1 to 10
"CNc1nc2cc(C3(O)c4ccccc4C(=O)N3Cc3ccccc3)ccc2[nH]1 (stereo not drawn) [Entry 84, 3-hydroxy-3-[2-(methylamino)-1H-benzimidazol-5-yl]-2-(phenylmethyl)-2,3-dihydro-1H-isoindol-1-one]",1 to 10,1 to 10
"O=C1COc2ccc(C3(O)c4ccccc4C(=O)N3c3cccc(-c4ccccc4)c3)cc2N1 (stereo not drawn) [Entry 85, 6-(2-biphenyl-3-yl-1-hydroxy-3-oxo-2,3-dihydro-1H-isoindol-1-yl)-2H-1,4-benzoxazin-3(4H)-one]",≥ 10,≥ 10
"CN(C)Cc1cccc(N2C(=O)c3ccccc3C2(O)c2ccc3c(c2)NC(=O)CO3)c1 (stereo not drawn) [Entry 86, 6-(2-{3-[(dimethylamino)methyl]phenyl}-1-hydroxy-3-oxo-2,3-dihydro-1H-isoindol-1-yl)-2H-1,4-benzoxazin-3(4H)-one]",1 to 10,1 to 10
"O=C1COc2ccc(C3(O)c4ccccc4C(=O)N3c3cc(Cl)cc(Cl)c3)cc2N1 (stereo not drawn) [Entry 87, 6-[2-(3,5-dichlorophenyl)-1-hydroxy-3-oxo-2,3-dihydro-1H-isoindol-1-yl]-2H-1,4-benzoxazin-3(4H)-one]",1 to 10,1 to 10
"CN(C)CCOc1cccc(N2C(=O)c3ccccc3C2(O)c2ccc3c(c2)NC(=O)CO3)c1 (stereo not drawn) [Entry 89, 6-[2-(3-{[2-(dimethylamino)ethyl]oxy}phenyl)-1-hydroxy-3-oxo-2,3-dihydro-1H-isoindol-1-yl]-2H-1,4-benzoxazin-3(4H)-one]",≥ 10,≥ 10
"CN(C(=O)c1ccccc1C(=O)c1ccc2c(c1)NC(=O)CO2)c1ccccc1 [Entry 91, N-methyl-2-[(3-oxo-3,4-dihydro-2H-1,4-benzoxazin-6-yl)carbonyl]-N-phenylbenzamide]",≥ 10,≥ 10
"O=C1c2ccccc2C(O)(c2ccc3cn[nH]c3c2)N1Cc1ccccc1 (stereo not drawn) [Entry 95, 3-hydroxy-3-(1H-indazol-6-yl)-2-(phenylmethyl)-2,3-dihydro-1H-isoindol-1-one]",≥ 10,≥ 10
"COC(=O)Nc1nc2cc(C3(O)c4ccccc4C(=O)N3Cc3cccs3)ccc2[nH]1 (stereo not drawn) [Entry 98, methyl {5-[1-hydroxy-3-oxo-2-(2-thienylmethyl)-2,3-dihydro-1H-isoindol-1-yl]-1H-benzimidazol-2-yl}carbamate]",< 0.1,< 0.1
